These results are taken from ChEMBL document CHEMBL1150292, “4-benzyl-1H-imidazoles with oxazoline termini as histamine H3 receptor agonists” (J Med Chem, 2008).

The Ki is the dissociation constant of the complex between target and ligand, obtained from inhibition or displacement. Usually EC50 stands for the concentration giving half of the maximal effect. As a reminder, the IC50 is the midpoint of a concentration-inhibition curve. The term inhibition denotes the change of the read-out against control, counted positive when it falls. Lower therefore signals a response near the control.

Assay [1] deals with T1, Histamine H3 receptor (Homo sapiens, UniProt Q9Y5N1). In words: Displacement of [3H]N-alpha-methylhistamine from human histamine H3 receptor expressed in CHO cells. It is filed as cell-based. A general note: Loss of bound radioactivity is the signal in a displacement assay; it reports binding, not function.
T1 sequence (Q9Y5N1 whole entry): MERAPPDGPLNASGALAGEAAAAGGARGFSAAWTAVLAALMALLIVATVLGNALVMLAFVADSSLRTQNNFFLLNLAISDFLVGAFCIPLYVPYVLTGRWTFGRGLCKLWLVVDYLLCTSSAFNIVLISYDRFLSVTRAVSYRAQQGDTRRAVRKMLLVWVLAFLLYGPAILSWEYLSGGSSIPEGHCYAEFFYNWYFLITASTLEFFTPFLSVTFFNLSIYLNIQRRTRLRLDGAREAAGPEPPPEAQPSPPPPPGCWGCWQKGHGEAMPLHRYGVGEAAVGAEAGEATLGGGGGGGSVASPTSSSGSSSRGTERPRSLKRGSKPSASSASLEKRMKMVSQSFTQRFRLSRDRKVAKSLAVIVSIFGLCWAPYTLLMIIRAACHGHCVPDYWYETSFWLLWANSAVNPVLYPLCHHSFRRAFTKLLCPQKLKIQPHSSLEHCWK
For assay [2], the target named is T1, Histamine H3 receptor. In words: Agonist activity at human histamine H3 receptor assessed as effect on [35S]GTPgammaS binding. It is filed as functional.
Assay [3] has as its target T2, Histamine H3 receptor (Cavia porcellus, UniProt Q9JI35). In words: Antagonist activity at guinea pig histamine H3 receptor assessed as inhibition of electrically induced twitch contraction. It is filed as functional. To be noted: read-out: pA2 (converted).
A short description of assay [4]: Inhibition of […] in human liver microsomes assessed as midazolam 1'-hydroxylase activity. It is filed as ADME, Microsome. (Microsomes from liver hold many membrane-bound enzymes, among them those of drug oxidation.)
The target in another assay is Cytochrome P450 2D6 (Homo sapiens, UniProt P10635). In words: Inhibition of CYP2D6 in human liver microsomes assessed as dextromethorphan O-demethylase activity. It is filed as ADME, Microsome.
Sequence of Cytochrome P450 2D6 (P10635 whole entry): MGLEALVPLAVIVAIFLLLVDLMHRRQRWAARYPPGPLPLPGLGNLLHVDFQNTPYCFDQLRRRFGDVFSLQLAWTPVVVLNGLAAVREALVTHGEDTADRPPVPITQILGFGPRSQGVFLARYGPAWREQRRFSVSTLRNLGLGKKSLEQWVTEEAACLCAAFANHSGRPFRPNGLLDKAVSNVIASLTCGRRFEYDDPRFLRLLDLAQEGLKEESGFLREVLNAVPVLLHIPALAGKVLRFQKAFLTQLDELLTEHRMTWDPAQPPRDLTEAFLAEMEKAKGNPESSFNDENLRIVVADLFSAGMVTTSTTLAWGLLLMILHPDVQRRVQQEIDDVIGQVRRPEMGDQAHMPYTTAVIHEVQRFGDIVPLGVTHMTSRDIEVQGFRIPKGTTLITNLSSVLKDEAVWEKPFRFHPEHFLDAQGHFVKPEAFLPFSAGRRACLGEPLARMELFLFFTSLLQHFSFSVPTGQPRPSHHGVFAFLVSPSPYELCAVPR
Assay [5] deals with T1, Histamine H3 receptor. In words: Agonist activity at human histamine H3 receptor assessed as beta galactosidase activity. It is filed as functional.
The target in assay [6] is Histamine H3 receptor (Cavia porcellus) (UniProt Q9JI35). To be noted: Ileum.
Sequence of Histamine H3 receptor (Cavia porcellus) (Q9JI35 whole entry): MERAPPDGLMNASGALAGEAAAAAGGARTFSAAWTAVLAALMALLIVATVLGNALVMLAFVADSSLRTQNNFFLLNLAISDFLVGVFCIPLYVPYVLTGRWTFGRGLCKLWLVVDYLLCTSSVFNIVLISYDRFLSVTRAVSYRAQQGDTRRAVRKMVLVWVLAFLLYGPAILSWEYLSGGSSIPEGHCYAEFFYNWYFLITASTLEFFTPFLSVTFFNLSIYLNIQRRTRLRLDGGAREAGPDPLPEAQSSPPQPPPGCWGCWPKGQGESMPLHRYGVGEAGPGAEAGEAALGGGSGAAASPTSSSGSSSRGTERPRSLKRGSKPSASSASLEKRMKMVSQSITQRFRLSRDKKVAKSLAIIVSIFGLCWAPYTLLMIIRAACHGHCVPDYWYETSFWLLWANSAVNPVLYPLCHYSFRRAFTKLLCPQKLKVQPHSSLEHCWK
Assay [7] deals with T2, Histamine H3 receptor. In words: Activity at histamine H3 receptor in guinea pig ileum. It is filed as tissue-based.
Assay [8] has as its target T3, Histamine H4 receptor (Homo sapiens, UniProt Q9H3N8). In words: Displacement of [3H]histamine from human histamine H4 receptor expressed in CHO cells. It is filed as cell-based.
Assay [9] addresses T3, Histamine H4 receptor. In words: Displacement of [3H]histamine from human histamine H4 receptor expressed in CHO cells at 10 uM. It is filed as cell-based.
In assay [10] the target is Histamine H2 receptor (Homo sapiens) (UniProt P25021). In words: Inhibition of histamine H2 receptor at 10 uM.
Sequence of Histamine H2 receptor (Homo sapiens) (P25021 whole entry): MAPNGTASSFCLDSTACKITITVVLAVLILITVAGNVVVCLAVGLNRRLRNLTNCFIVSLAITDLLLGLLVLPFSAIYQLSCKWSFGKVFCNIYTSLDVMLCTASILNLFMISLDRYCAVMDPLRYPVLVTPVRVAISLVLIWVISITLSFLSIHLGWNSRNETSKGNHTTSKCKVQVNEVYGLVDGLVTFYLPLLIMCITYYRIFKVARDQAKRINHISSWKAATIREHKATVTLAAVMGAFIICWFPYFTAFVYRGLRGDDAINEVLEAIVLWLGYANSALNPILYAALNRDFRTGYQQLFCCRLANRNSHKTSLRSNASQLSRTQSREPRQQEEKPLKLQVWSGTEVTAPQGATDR
Assay [11] addresses Histamine H1 receptor (Homo sapiens) (UniProt P35367). In words: Inhibition of histamine H1 receptor at 10 uM.
Assay [12] deals with Histamine H3 receptor (Rattus norvegicus, UniProt Q9QYN8). In words: Agonist activity at histamine H3 receptor in rat cortex.
Sequence of Histamine H3 receptor (Rattus norvegicus, UniProt Q9QYN8) (Q9QYN8 whole entry): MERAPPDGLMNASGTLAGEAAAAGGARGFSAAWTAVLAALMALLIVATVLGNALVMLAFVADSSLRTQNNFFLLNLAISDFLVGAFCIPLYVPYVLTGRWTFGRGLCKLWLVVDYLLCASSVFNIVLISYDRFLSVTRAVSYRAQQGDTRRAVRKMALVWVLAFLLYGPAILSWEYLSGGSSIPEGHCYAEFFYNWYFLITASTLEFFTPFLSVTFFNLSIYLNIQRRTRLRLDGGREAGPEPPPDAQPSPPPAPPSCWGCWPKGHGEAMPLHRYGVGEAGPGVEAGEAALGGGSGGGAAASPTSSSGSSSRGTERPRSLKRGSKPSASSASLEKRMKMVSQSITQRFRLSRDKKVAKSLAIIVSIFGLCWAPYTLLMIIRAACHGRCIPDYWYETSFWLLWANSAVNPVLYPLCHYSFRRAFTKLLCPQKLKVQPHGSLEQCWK
For assay [13], the target named is Histamine H3 receptor (Rattus norvegicus) (UniProt Q9QYN8). To be noted: Cortex.
Sequence of Histamine H3 receptor (Rattus norvegicus) (Q9QYN8 whole entry): as above

Sequence of Histamine H1 receptor (Homo sapiens) (P35367 whole entry): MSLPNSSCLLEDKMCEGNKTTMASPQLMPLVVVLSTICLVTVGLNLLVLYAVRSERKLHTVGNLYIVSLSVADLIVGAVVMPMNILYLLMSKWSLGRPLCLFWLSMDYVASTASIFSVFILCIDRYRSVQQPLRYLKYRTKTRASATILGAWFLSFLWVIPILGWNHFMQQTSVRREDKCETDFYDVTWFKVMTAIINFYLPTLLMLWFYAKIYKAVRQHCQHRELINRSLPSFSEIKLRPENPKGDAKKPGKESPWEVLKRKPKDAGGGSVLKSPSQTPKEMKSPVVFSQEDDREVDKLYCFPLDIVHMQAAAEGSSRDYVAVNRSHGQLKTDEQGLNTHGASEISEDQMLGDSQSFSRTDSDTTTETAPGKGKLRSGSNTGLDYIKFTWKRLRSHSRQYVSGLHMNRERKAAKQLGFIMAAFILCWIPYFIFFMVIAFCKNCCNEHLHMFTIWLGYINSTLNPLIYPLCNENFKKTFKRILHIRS
T3 sequence (Q9H3N8 whole entry): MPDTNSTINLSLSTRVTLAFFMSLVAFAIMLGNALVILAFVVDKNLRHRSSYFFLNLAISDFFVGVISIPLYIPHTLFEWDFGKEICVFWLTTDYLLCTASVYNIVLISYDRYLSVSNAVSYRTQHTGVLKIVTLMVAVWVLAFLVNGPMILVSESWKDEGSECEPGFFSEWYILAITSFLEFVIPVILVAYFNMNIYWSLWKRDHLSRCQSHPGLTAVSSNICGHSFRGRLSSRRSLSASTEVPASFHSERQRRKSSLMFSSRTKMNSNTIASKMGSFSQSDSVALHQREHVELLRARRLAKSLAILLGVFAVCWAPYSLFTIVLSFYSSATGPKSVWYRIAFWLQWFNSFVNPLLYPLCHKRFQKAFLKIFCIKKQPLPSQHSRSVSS
T2 sequence (Q9JI35 whole entry): as the sequence (Q9JI35 whole entry) above

For the compound `c1cc(Cc2cnc[nH]2)cc(C2=NC(CC3CCCCC3)CO2)c1` (stereo unspecified), at Histamine H3 receptor [1], the Ki is 708 nM.

At Histamine H3 receptor [1], `N#Cc1cccc(Cc2c[nH]cn2)c1` had a Ki of 155 nM.

At Histamine H3 receptor [1], `CC1(C)CN=C(c2cccc(Cc3cnc[nH]3)c2)OC1` had a Ki of 2510 nM.

Take `c1nc(CC2CCNCC2)c[nH]1` [IMMEPIP]: the affinity at Histamine H3 receptor [1] corresponds to a Ki of 0.407 nM.

For `c1ccc(-c2cccc(Cc3cnc[nH]3)c2)cc1`, at Histamine H3 receptor [1], the inhibition constant Ki is 33.1 nM. In addition, on Histamine H3 receptor [2], the EC50 is 200 nM.

Compound `c1ccc(C[C@@H]2COC(c3cccc(Cc4cnc[nH]4)c3)=N2)cc1` showed a Ki on Histamine H3 receptor [1] of 89.1 nM. Besides, at Histamine H3 receptor [3], the Kb is 2240 nM. Further, on Histamine H3 receptor [2], the concentration for a half-maximal effect (EC50) is 79.4 nM.

`C(#Cc1cccc(Cc2c[nH]cn2)c1)c1ccccc1` had a Ki at Histamine H3 receptor [1] of 1.82 nM. Further, the IC50 amounted to 2760 nM in [4] and 488 nM on Cytochrome P450 2D6.

At Histamine H3 receptor [1], `CC(C)(C)CCC#C[C@@H]1C[C@H]1c1c[nH]cn1` (single isomer, unassigned) [CIPRALISANT] showed a Ki of 3.98 nM.

In the case of `CCCCc1c[nH]cn1`, affinity at Histamine H3 receptor [1] was put at a Ki of 25.1 nM. Moreover, on Histamine H3 receptor [5], the EC50 is 31.6 nM.

`c1ccc(Cc2c[nH]cn2)cc1` had a Ki on Histamine H3 receptor [1] of 162 nM.

Take `CC1(C)COC(c2cccc(Cc3c[nH]cn3)c2)=N1`: on Histamine H3 receptor [1], the affinity corresponds to a Ki of 3.98 nM. Moreover, on Histamine H3 receptor [2], the EC50 is 15.8 nM.

The compound `Brc1ccc(Cc2c[nH]cn2)cc1` gave a Ki at Histamine H3 receptor [1] of 417 nM. For the same compound, the EC50 at Histamine H3 receptor [2] is 631 nM.

As for `CNCCc1cnc[nH]1`, the pD2 in assay [6] came to 7.8.

Regarding `c1ccc(-c2cccc(Cc3c[nH]cn3)c2)nc1`, at Histamine H3 receptor [1], the affinity, expressed as Ki, was 40.7 nM.

With `c1cc(Cc2cnc[nH]2)cc(C2=NC3(CCCC3)CO2)c1`, the Ki at Histamine H3 receptor [1] is 39.8 nM.

`CNCCc1c[nH]cn1` gave an inhibitory constant (Ki) on Histamine H3 receptor [7] of 2.51 nM.

With `CC(C)(C)CC(=O)c1cccc(Cc2cnc[nH]2)c1`, the Ki was 32.4 nM on Histamine H3 receptor [1] and 5.62 nM at Histamine H4 receptor [8]. In addition, on Cytochrome P450 2D6, the IC50 was 1930 nM. The Kb at Histamine H3 receptor [3] is 955 nM. The EC50 on Histamine H3 receptor [2] was 79.4 nM.

Compound `CC1(C)COC(c2ccc(Cc3c[nH]cn3)cc2)=N1` had an inhibitory constant (Ki) on Histamine H3 receptor [1] of 2510 nM. In addition, the IC50 in assay [4] worked out at 2520 nM; at Cytochrome P450 2D6, 543 nM. This compound displayed an inhibition on Histamine H4 receptor [9] of 17%.

For the compound `c1cc(Cc2cnc[nH]2)ccn1` [IMMETHRIDINE], the EC50 at Histamine H3 receptor [5] is 0.2 nM.

`CC(C)(C)C#Cc1ccc(Cc2c[nH]cn2)cc1` gave a Ki on Histamine H3 receptor [1] of 537 nM.

Turning to `CC1CC(C)(C)N=C(c2cccc(Cc3c[nH]cn3)c2)O1` (stereo unspecified), the inhibition in [10] was under 40%; in assay [11] it was under 20%. The Ki was 1.26 nM on Histamine H3 receptor [1] and 8.32 nM at Histamine H4 receptor [8]. In addition, the IC50 in [4] was found to be 873 nM; on Cytochrome P450 2D6, 292 nM. For the same compound, on Histamine H3 receptor [3], the Kb is 3.98 nM. The EC50 at Histamine H3 receptor [2] was 2 nM.

At Histamine H3 receptor [1], `C(#Cc1cccc2ccccc12)c1cccc(Cc2c[nH]cn2)c1` showed a Ki of 1740 nM.

`c1cc(Cc2c[nH]cn2)cc(C2=NCC3(CCCCC3)O2)c1` gave an inhibition constant (Ki) on Histamine H3 receptor [1] of 56.2 nM.

`CCCC#Cc1cccc(Cc2c[nH]cn2)c1` had a Ki at Histamine H3 receptor [1] of 3.16 nM. Also, the results for the half-maximal inhibitory concentration (IC50) (in assay [4]; at Cytochrome P450 2D6) were 1640 nM and 644 nM, respectively.

In the case of `CC(C)(C)CC(=O)c1cccc(Cc2c[nH]cn2)c1`, the figures for the inhibition in assay [10] and in [11] were under 40% and under 20%, respectively. In addition, the IC50 in assay [4] turned out to be 1100 nM.

In the case of `c1cc(Cc2cnc[nH]2)cc(-c2ccncc2)c1`, the Ki at Histamine H3 receptor [1] is 427 nM.

`c1ccc(COCCCc2c[nH]cn2)cc1` [PROXYFAN]: at Histamine H3 receptor [12], the affinity, expressed as Ki, was 10 nM.

Turning to `C[C@H]1CNC[C@@H]1c1c[nH]cn1`, the pD2 in assay [6] worked out at 7.5. Also, the Ki at Histamine H3 receptor [7] is 2.51 nM.

Compound `Nc1ccc(Cc2c[nH]cn2)cc1` had an inhibition constant Ki on Histamine H3 receptor [1] of 257 nM.

For the compound `C[C@@H](N)Cc1c[nH]cn1`, the pD2 in assay [13] was determined as 8.4.

`N#Cc1ccc(Cc2c[nH]cn2)cc1`: the Ki on Histamine H3 receptor [1] is 813 nM.

As to `CC(C)(C)C#Cc1cccc(Cc2c[nH]cn2)c1`, the inhibition in [10] was under 40%; in assay [11], under 20%. For the same compound, the results for the Ki on Histamine H3 receptor [1] and on Histamine H4 receptor [8] were 4.47 nM and 5.62 nM, respectively. The values for the IC50 (in assay [4]; at Cytochrome P450 2D6) were 1860 nM and 1780 nM, respectively. In addition, the Kb on Histamine H3 receptor [3] was 79.4 nM. In addition, at Histamine H3 receptor [2], the EC50 was 7.94 nM.
